Read-outs that look alike come from different tables or passages of the source.
Columns and labels:
[1] = biological target: T1, CRAC channel (endogenous SOC in HEK293 cells) (Homo sapiens, UniProt Q96D31); assay: HEK Calcium Influx Assay (FLIPR); type: cell-based
T1 construct: endogenous in cells; host or cells: HEK293 (ECACC)
Protocol: The effect of compounds of the invention on intracellular [Ca^2+] was tested in the HEK293 cell line (ECACC). HEK293 cells were cultured in DMEM/F12/Glutamax (Gibco) containing 10% FCS (Gibco), and maintained at 37° C., 5% CO2. Cell were split twice a week [3*10^6 (Mon-Thu) and 1*10^6 (Thu-Mon) cells/50 ml medium in T-175 ZK culture flasks, respectively]. Twenty four hours pre-experiment, cells were seeded on 96 well plates (Poly-D-Lysine 96well Black/Clear Plate, BD Biocoat REF 356640) at a density of 40,000 cells/well in DMEM/F12 (Gibco) containing 10% FCS (Gibco), and maintained at 37° C., 5% CO2. Prior to store-depletion, cell culture medium was removed and cells were loaded with the a Calcium-sensitive fluorescent dye comprised within the Calcium-4-assay kit (Molecular Devices) in nominally Ca^2+-free HBS buffer (140 mM NaCl, 4 mM KCl, 0.2 mM MgCl2, 11 mM D-glucose, and 10 mM HEPES, pH 7.4) according to manufacturer's instruction for 60 min at 37° C., 5% CO2. Passive depletion of intracellular Ca^2+-stores was then triggered by employing the SERCA inhibitor thapsigargin (2 μM final) for 10 min in the dark (RT). To prevent immediate Ca^2+-entry via the activated Store-operated channels (SOCs), cells were maintained in Ca^2+-free HBS buffer comprising 100 μM EGTA during store-depletion. Intracellular changes in [Ca^2+] were subsequently monitored with the FLIPR device (Molecular Devices). In brief, baseline imaging post-store depletion was allowed for 1 min before adjusting the extracellular buffer to 3 mM CaCl2. Increases in intracellular [Ca^2+] due to pre-activated SOC channels were monitored for 15 min until intracellular Ca^2+ levels had declined into a steady-state. Finally, compounds were administered and Ca^2+ signals were recorded for additional 10 min. Inhibition of endogenous SOC in HEK293 cells was quantified employing the average Ca^2+ signal measured from 9.5-10 min post-administration. Zero percent inhibition (MAX) was defined as the Ca^2+ signal recorded from wells to which DMSO-only had been added instead of compound. Hundred percent inhibition (MIN) was defined as the signal obtained from wells in which cells haven't been treated with TG prior to Ca^2+ addition and to which DMSO-only had been added instead of compound. For routine IC50 determinations of compounds, 8 concentrations of a serial dilution (1:3.16) were tested, starting off from 10 μM. Reliable IC50's could consequently be determined only, if they were at least sub 2.5-3 μM.

[2] = tested on: Interleukin-2 (IL-2) production/release in Jurkat T cell line; assay: Jurkat IL-2 Production Assay; type: cell-based; conditions: Homo sapiens; Jurkat T cells, PHA stimulation 22 hours
Protocol: Jurkat IL-2 Production Assay
The effect of compounds of the invention on Interleukin-2 (IL-2) production/release was tested in the Jurkat T cell line (ECACC) clone E6-1. Jurkat T cells were cultured in DMEM/F12/Glutamax (Gibco) containing 10% FCS (Gibco), and maintained at 37° C., 5% CO2. Cell were split twice a week [5*10^6 (Mon-Thu) and 1*10^7 (Thu-Mon) cells/50 ml medium in T-175 ZK culture flasks, respectively]. Prior to experiment, cells were seeded on 96 well plates (Cellstar 96 Well; Cat No. 655180, Greiner bio-one) at a density of 5*10^5 cells/well in DMEM/F12/Glutamax (Gibco) containing 10% FCS (Gibco), and incubated for 60 min at 37° C., 5% CO2. Subsequently, compounds were added and cells were allowed to incubate for 30 min at 37° C., 5% CO2. Cells were then stimulated with 15 μg/ml Phytohemagglutinin (PHA; Sigma) for 22 hours at 37° C., 5% CO2. Before sampling of the supernatants, cells were spun down (200*g/5 min/RT). The amount of IL-2 released into the supernatant was quantified with the human IL-2 AlphaLisa kit (Perkin Elmer) according to manufacturer's instructions. Luminescence proximity measurements were carried out in the Synergy H4 reader (BioTek) employing the fluorescence setting of the reader (ex: 680/30 nm; em: 620/40 nm). Inhibition of IL-production/release in/from Jurkat T cells was quantified as follows: Zero percent inhibition (MAX) was defined as the [IL-2] determined in supernatants derived from cells to which PHA & DMSO-only had been added instead of compound. Hundred percent inhibition (MIN) was defined as the [IL-2] determined in supernatants derived from cells that had been pre-treated with 1 μM CyclosporineA (Sigma) before the addition of 15 μg/ml PHA. For routine IC50 determinations of compounds, 8 concentrations of a serial dilution (1:3.16) were tested, starting off from 10 μM.

[3] = numeric values of Table 2, read-out: inhib. [@ 10 μM] FLIPR
[4] = thapsigargin store depletion, read-out: % inhib. [@ 10 μM] FLIPR

T1 sequence (Q96D31 whole entry): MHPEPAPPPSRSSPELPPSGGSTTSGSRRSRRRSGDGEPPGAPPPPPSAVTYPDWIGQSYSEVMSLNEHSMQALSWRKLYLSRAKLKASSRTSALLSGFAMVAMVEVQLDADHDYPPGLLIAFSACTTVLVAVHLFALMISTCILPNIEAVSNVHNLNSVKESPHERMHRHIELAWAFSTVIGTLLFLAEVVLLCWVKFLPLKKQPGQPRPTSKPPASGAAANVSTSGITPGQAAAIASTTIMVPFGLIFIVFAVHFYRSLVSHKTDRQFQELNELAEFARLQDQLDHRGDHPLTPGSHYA

Question: What does the source list for `CCOc1cc(C)c(-c2cc(C(=O)Nc3c(F)cncc3F)nn2C)cn1` [Example 2, N-(3,5-Difluoro-pyridin-4-yl)-5-(6-ethoxy-4-methyl-pyridin-3-yl)-1-methyl-1H-pyrazole-3-carboxylic acid amide]?
Answer: inhibition at 10 µM [1, 3]: 95%; inhibition at 10 µM [1, 4]: > 70%; IC50 [2]: 0.5 to 1 µM

Question: `CCOc1ccc(-c2cc(C(=O)Nc3c(F)cccc3F)nn2C)c(C)n1` [Example 5, N-(2,6-Difluoro-phenyl)-5-(6-ethoxy-2-methyl-pyridin-3-yl)-1-methyl-1H-pyrazole-3-carboxylic acid amide] was tested. Which inhibition at 10 µM [1, 4] did it give?
Answer: The inhibition at 10 µM was greater than 70%.

Question: What about the IC50 [2] of the same compound?
Answer: The IC50 was 1 to 5 µM.

Question: How did the inhibition at 10 µM [1, 3] turn out when `CCc1cc(C)c(-c2cc(C(=O)Nc3c(F)cccc3F)nn2C)cn1` [Example 6, N-(2,6-Difluoro-phenyl)-5-(6-ethyl-4-methyl-pyridin-3-yl)-1-methyl-1H-pyrazole-3-carboxylic acid amide] was run?
Answer: Its inhibition at 10 µM is 67%.

Question: What about the inhibition at 10 µM [1, 4] of the same compound?
Answer: The inhibition at 10 µM was greater than 70%.

Question: What about the IC50 [2] of the same compound?
Answer: The IC50 was 1 to 5 µM.

Question: For `CCc1cc(C)c(-c2cc(C(=O)Nc3c(F)cncc3F)nn2C)cn1` [Example 7, N-(3,5-Difluoro-pyridin-4-yl)-5-(6-ethyl-4-methyl-pyridin-3-yl)-1-methyl-1H-pyrazole-3-carboxylic acid amide], which inhibition at 10 µM [1, 3] is on record?
Answer: The inhibition at 10 µM was 61%.

Question: And the inhibition at 10 µM [1, 4]?
Answer: Its inhibition at 10 µM is 50 to 70%.

Question: What about the IC50 [2] of the same compound?
Answer: Its IC50 is 1 to 5 µM.

Question: For `Cc1cc(C2CC2)ncc1-c1cc(C(=O)Nc2c(F)cccc2F)nn1C` [Example 8, 5-(6-Cyclopropyl-4-methyl-pyridin-3-yl)-N-(2,6-difluoro-phenyl)-1-methyl-1H-pyrazole-3-carboxylic acid amide], which inhibition at 10 µM [1, 3] is on record?
Answer: Its inhibition at 10 µM is 81%.

Question: And the inhibition at 10 µM [1, 4]?
Answer: Its inhibition at 10 µM is greater than 70%.

Question: And the IC50 [2]?
Answer: The IC50 was 1 to 5 µM.

Question: What does the source list for `Cc1cc(OC2CC2)ncc1-c1cc(C(=O)Nc2c(F)cncc2F)nn1C` [Example 9, 5-(6-Cyclopropyloxy-4-methyl-pyridin-3-yl)-N-(3,5-difluoro-pyridin-4-yl)-1-methyl-1H-pyrazole-3-carboxylic acid amide]?
Answer: inhibition at 10 µM [1, 3]: 76%; inhibition at 10 µM [1, 4]: > 70%; IC50 [2]: 0.5 to 1 µM

Question: Which inhibition at 10 µM [1, 3] does the source give for `Cc1cc(OC2CC2)ncc1-c1cc(C(=O)Nc2c(F)cccc2F)nn1C` [Example 10, 5-(6-Cyclopropyloxy-4-methyl-pyridin-3-yl)-N-(2,6-difluoro-phenyl)-1-methyl-1H-pyrazole-3-carboxylic acid amide] here?
Answer: The inhibition at 10 µM was 83%.

Question: And the inhibition at 10 µM [1, 4]?
Answer: The inhibition at 10 µM was greater than 70%.

Question: What about the IC50 [2] of the same compound?
Answer: Its IC50 is 0.5 to 1 µM.

Question: Which inhibition at 10 µM [1, 3] does the source give for `Cc1cc(OC(F)(F)F)ncc1-c1cc(C(=O)Nc2c(F)cncc2F)nn1C` [Example 11, N-(3,5-Difluoro-pyridin-4-yl)-1-methyl-5-[4-methyl-6-(trifluoromethyloxy)-pyridin-3-yl]-1H-pyrazole-3-carboxylic acid amide] here?
Answer: The inhibition at 10 µM was 94%.

Question: And the inhibition at 10 µM [1, 4]?
Answer: Its inhibition at 10 µM is greater than 70%.

Question: And the IC50 [2]?
Answer: Its IC50 is less than 0.5 µM.

Question: How did the inhibition at 10 µM [1, 3] turn out when `Cc1cc(OC(F)(F)F)ncc1-c1cc(C(=O)Nc2c(F)cccc2F)nn1C` [Example 12, N-(2,6-Difluoro-phenyl)-1-methyl-5-[4-methyl-6-(trifluoromethyloxy)-pyridin-3-yl]-1H-pyrazole-3-carboxylic acid amide] was run?
Answer: Its inhibition at 10 µM is 92%.

Question: And the inhibition at 10 µM [1, 4]?
Answer: The inhibition at 10 µM was greater than 70%.

Question: What about the IC50 [2] of the same compound?
Answer: The IC50 was less than 0.5 µM.

Question: How did the IC50 [2] turn out when `Cc1cc(OCC2CCC2)ncc1-c1cc(C(=O)Nc2c(F)cccc2F)nn1C` [Example 18] was run?
Answer: Its IC50 is 1 to 5 µM.

Question: What does the source list for `Cc1cc(COc2cc(C)c(-c3cc(C(=O)Nc4c(F)cccc4F)nn3C)cn2)no1` [Example 19, N-(2,6-Difluoro-phenyl)-1-methyl-5-[4-methyl-6-[(5-methyl-isoxazol-3-yl)-methoxy]-pyridin-3-yl]-1H-pyrazole-3-carboxylic acid amide]?
Answer: inhibition at 10 µM [1, 3]: 113%; inhibition at 10 µM [1, 4]: > 70%

Question: `Cc1cc(C#N)ncc1-c1cc(C(=O)Nc2c(F)cccc2F)nn1C` [Example 41, 5-(6-Cyano-4-methyl-pyridin-3-yl)-N-(2,6-difluoro-phenyl)-1-methyl-1H-pyrazole-3-carboxylic acid amide] was tested. Which inhibition at 10 µM [1, 4] did it give?
Answer: The inhibition at 10 µM was less than 50%.

Question: For `COc1cc(C(F)(F)F)ncc1-c1cc(C(=O)Nc2c(F)cccc2F)nn1C` [Example 42, N-(2,6-Difluoro-phenyl)-5-[4-methoxy-6-(trifluoromethyl)-pyridin-3-yl]-1-methyl-1H-pyrazole-3-carboxylic acid amide], which IC50 [2] is on record?
Answer: The IC50 was 0.5 to 1 µM.

Question: With `Cc1cc(OC(C)C)ncc1-c1cc(C(=O)Nc2c(F)cncc2F)nn1C` [Example 52, N-(3,5-Difluoro-pyridin-4-yl)-5-(6-isopropoxy-4-methyl-pyridin-3-yl)-1-methyl-1H-pyrazole-3-carboxylic acid amide] as the compound, how does the IC50 [2] read?
Answer: The IC50 was 0.5 to 1 µM.

Question: Which IC50 [2] does the source give for `COc1cc(C2CC2)ncc1-c1cc(C(=O)Nc2c(F)cncc2F)nn1C` [Example 53, 5-(6-Cyclopropyl-4-methoxy-pyridin-3-yl)-N-(3,5-difluoro-pyridin-4-yl)-1-methyl-1H-pyrazole-3-carboxylic acid amide] here?
Answer: Its IC50 is 0.5 to 1 µM.

Question: For `COc1cc(C)c(-c2cc(C(=O)Nc3c(F)cccc3F)nn2C)cn1` [Example 58, N-(2,6-Difluoro-phenyl)-5-(6-methoxy-4-methyl-pyridin-3-yl)-1-methyl-1H-pyrazole-3-carboxylic acid amide], which IC50 [2] is on record?
Answer: The IC50 was 1 to 5 µM.

Question: What does the source list for `COCc1cc(C)c(-c2cc(C(=O)Nc3c(F)cccc3F)nn2C)cn1` [Example 59, N-(2,6-Difluoro-phenyl)-5-[6-(methoxymethyl)-4-methyl-pyridin-3-yl]-1-methyl-1H-pyrazole-3-carboxylic acid amide]?
Answer: inhibition at 10 µM [1, 3]: 67%; inhibition at 10 µM [1, 4]: 50 to 70%

Question: `COc1cc(O)ncc1-c1cc(C(=O)Nc2c(F)cccc2F)nn1C` [Example 70, N-(2,6-Difluoro-phenyl)-5-(6-hydroxy-4-methoxy-pyridin-3-yl)-1-methyl-1H-pyrazole-3-carboxylic acid amide] was tested. Which inhibition at 10 µM [1, 4] did it give?
Answer: Its inhibition at 10 µM is less than 50%.

Question: `CCOc1cc(O)c(-c2cc(C(=O)Nc3c(F)cccc3F)nn2C)cn1` [Example 71, N-(2,6-Difluoro-phenyl)-5-(6-ethoxy-4-hydroxy-pyridin-3-yl)-1-methyl-1H-pyrazole-3-carboxylic acid amide] was tested. Which inhibition at 10 µM [1, 4] did it give?
Answer: Its inhibition at 10 µM is less than 50%.

Question: For `Cn1nc(C(=O)Nc2c(F)cccc2F)cc1-c1nc(C(F)(F)F)ccc1C#N` [Example 72, 5-[3-Cyano-6-(trifluoromethyl)-pyridin-2-yl]-N-(2,6-difluoro-phenyl)-1-methyl-1H-pyrazole-3-carboxylic acid amide], which inhibition at 10 µM [1, 4] is on record?
Answer: The inhibition at 10 µM was less than 50%.

Question: How did the inhibition at 10 µM [1, 4] turn out when `Cn1nc(C(=O)Nc2c(F)cccc2F)cc1-c1nc(C(C)(C)C)ccc1C#N` [Example 73, 5-(6-tert-Butyl-3-cyano-pyridin-2-yl)-N-(2,6-difluoro-phenyl)-1-methyl-1H-pyrazole-3-carboxylic acid amide] was run?
Answer: Its inhibition at 10 µM is less than 50%.

Question: `COc1cc(N(C)C)c(-c2cc(C(=O)Nc3c(F)cccc3F)nn2C)cn1` [Example 75, N-(2,6-Difluoro-phenyl)-5-(4-dimethylamino-6-methoxy-pyridin-3-yl)-1-methyl-1H-pyrazole-3-carboxylic acid amide] was tested. Which IC50 [2] did it give?
Answer: Its IC50 is 1 to 5 µM.
